Test results taken from article PMC10283505, “CVM-1118 (foslinanib), a 2-phenyl-4-quinolone derivative, promotes apoptosis and inhibits vasculogenic mimicry via targeting TRAP1” (Pathology and Oncology Research, 2023).

Assays:
Nucleolin = Nucleolin (Homo sapiens, UniProt P19338); test: Surface plasmon resonance (Biacore); assay type: binding; details: SPR
Catenin α2 = target: T1, Catenin α2 (Homo sapiens, UniProt P26232); test: Surface plasmon resonance (Biacore); assay type: binding; details: Catenin α2, SPR
T1 sequence (P26232 1-953): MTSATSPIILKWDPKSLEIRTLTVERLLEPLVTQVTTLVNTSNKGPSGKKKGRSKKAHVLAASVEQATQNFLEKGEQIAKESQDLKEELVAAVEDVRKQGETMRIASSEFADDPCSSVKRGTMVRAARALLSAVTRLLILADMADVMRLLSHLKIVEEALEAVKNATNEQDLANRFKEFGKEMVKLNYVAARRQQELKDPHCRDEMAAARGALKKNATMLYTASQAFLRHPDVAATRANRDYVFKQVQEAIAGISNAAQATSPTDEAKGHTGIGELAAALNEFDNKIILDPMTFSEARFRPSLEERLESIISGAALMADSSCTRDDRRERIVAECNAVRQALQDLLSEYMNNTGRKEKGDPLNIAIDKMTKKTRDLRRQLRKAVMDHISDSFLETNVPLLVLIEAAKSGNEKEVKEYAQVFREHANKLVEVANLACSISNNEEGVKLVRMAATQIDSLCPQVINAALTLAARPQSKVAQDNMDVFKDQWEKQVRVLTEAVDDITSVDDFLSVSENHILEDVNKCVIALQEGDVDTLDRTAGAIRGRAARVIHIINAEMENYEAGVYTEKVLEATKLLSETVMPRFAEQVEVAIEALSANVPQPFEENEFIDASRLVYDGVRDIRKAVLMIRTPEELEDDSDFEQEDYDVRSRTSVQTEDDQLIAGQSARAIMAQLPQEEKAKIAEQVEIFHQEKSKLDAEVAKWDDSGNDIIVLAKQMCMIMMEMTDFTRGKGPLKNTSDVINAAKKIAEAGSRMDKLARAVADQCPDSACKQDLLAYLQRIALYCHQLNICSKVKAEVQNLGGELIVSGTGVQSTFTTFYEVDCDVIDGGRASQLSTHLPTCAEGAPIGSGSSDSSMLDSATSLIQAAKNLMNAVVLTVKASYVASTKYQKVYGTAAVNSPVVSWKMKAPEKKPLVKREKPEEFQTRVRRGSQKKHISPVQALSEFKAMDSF

Catenin β-1 = target: T2, Catenin β-1 (Homo sapiens, UniProt P35222); test: Surface plasmon resonance (Biacore); assay type: binding; details: Catenin β-1, SPR
T2 sequence (P35222 1-781): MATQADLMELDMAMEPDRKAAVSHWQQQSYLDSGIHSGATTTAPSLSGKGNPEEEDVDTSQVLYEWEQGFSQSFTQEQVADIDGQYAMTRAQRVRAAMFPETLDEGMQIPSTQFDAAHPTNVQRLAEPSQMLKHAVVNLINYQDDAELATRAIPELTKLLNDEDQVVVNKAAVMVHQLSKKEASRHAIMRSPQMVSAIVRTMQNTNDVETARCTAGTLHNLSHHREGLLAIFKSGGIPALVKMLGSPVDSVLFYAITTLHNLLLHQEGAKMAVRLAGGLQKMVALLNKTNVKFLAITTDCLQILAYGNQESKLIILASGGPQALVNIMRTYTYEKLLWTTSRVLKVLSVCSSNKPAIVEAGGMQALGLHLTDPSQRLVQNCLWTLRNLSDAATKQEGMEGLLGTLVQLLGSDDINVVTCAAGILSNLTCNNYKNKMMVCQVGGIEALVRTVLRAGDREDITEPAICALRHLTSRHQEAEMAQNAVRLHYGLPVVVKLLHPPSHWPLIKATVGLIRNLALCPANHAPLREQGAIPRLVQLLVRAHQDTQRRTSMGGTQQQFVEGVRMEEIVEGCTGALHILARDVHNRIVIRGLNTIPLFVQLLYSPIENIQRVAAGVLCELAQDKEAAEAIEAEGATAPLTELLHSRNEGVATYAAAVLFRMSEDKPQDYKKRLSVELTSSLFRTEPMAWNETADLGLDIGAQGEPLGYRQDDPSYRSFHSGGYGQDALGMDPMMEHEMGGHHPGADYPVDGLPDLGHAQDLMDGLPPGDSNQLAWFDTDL

SNB-75 = test: NCI 60 cytotoxicity screening; assay type: cell-based; details: Homo sapiens; SNB-75, CNS
OVCAR-3 = test: NCI 60 cytotoxicity screening; assay type: cell-based; details: Homo sapiens; OVCAR-3, Ovarian
HL-60(TB) = test: NCI 60 cytotoxicity screening; assay type: cell-based; details: Homo sapiens, Leukemia
T-47D = test: NCI 60 cytotoxicity screening; assay type: cell-based; details: Homo sapiens, T47D, Breast
SNB-19 = test: NCI 60 cytotoxicity screening; assay type: cell-based; details: Homo sapiens; SNB-19, CNS
MCF7 = test: NCI 60 cytotoxicity screening; assay type: cell-based; details: Homo sapiens; MCF7, Breast
HCC-2998 = test: NCI 60 cytotoxicity screening; assay type: cell-based; details: Homo sapiens; HCC-2998, Colon
CCRF-CEM = test: NCI 60 cytotoxicity screening; assay type: cell-based; details: Homo sapiens, Leukemia
U251 = test: NCI 60 cytotoxicity screening; assay type: cell-based; details: Homo sapiens, U-251; U251, CNS
Nodal = test: qPCR analysis of Nodal expression; assay type: cell-based, human; details: C8161, 10 nM, 8–72 h
Description: For the qPCR analysis of Nodal and Notch expression, total RNA was isolated from cells using the PerfectPure RNA Cell Isolation kit (5Prime) and then reverse-transcribed using 1 μg RNA, RT master mix cocktail and MMLV reverse transcriptase. qPCR was performed on a 7500 Real-Time PCR System (Life Technologies) using manufacturer recommended protocol. TaqMan gene expression human primer/probe sets (Applied Biosystems) utilized were Nodal (Hs00250630_s1) and Notch4 (Hs00270200_m1). Target gene expression was normalized to appropriate house-keeping genes (e.g., RPLP0 or GAPDH). Data was analyzed using Life Technologies Sequence Detection Software.

Nucleolin, sequence (P19338 whole entry): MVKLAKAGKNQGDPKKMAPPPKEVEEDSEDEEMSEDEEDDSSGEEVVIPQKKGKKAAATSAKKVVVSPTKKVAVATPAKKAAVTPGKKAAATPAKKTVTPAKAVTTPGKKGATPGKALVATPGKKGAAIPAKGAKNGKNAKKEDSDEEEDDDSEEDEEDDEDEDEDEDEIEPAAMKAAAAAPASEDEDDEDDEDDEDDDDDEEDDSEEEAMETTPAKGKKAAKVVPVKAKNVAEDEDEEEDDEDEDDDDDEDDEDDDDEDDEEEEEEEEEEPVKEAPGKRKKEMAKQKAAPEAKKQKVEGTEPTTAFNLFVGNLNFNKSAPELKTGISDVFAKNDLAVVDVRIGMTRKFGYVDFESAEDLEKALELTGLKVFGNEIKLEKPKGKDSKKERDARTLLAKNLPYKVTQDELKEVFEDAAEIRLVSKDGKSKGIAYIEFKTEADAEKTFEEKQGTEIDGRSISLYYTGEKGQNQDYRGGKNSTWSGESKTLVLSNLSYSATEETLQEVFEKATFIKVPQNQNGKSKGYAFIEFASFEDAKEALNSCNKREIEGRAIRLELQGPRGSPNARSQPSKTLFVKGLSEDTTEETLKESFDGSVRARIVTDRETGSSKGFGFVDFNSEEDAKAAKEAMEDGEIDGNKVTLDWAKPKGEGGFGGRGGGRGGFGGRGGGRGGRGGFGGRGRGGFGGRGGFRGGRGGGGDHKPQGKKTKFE

## COc1ccc2[nH]c(-c3cccc(F)c3)cc(=O)c2c1O [CVM-1125]
Nucleolin
  Dissociation (kd): 0.0122 s⁻¹
Nucleolin; read-out: Association (ka)
  kon: 13500 M⁻¹ s⁻¹
Nucleolin; read-out: KD (kd/ka)
  Kd: 906 nM
Catenin α2
  Association (ka): No dose dependent interaction
  Dissociation (kd): No dose dependent interaction
  KD (kd/ka): No dose dependent interaction
Catenin β-1
  Association (ka): No interaction
  Dissociation (kd): No interaction
  KD (kd/ka): No interaction
SNB-75
  GI50: 15 nM
OVCAR-3
  GI50: 19.1 nM
HL-60(TB)
  GI50: 22.2 nM
T-47D
  GI50: 28 nM
SNB-19
  GI50: 28.8 nM
MCF7
  GI50: 29.9 nM
HCC-2998
  GI50: 32.1 nM
CCRF-CEM
  GI50: 34.8 nM
U251
  GI50: 42.9 nM

## COc1ccc2[nH]c(-c3cccc(F)c3)cc(=O)c2c1OP(=O)(O)O [CVM-1118]
Nodal
  expression of Nodal (mRNA): decreased
